From paper PMC7657664 (Harmful algae, 2020)
Read-outs that look alike come from different tables or passages of the source.

What was measured:
[1] = target: T1, Torpedo-nAChR of embryonic muscle type (α1)2β1γδ (Torpedo marmorata, UniProt P02711+Q6S3H8+Q6S3H9); test: microplate receptor-binding assay, competition with biotin-α-bungarotoxin
[2] = target: T1, Torpedo-nAChR of embryonic muscle type (α1)2β1γδ; test: as above; remark: listed apart in the source

Molecule	IC50 [1] [µM]	IC50 [2] [µM]
28-O-palmitoyl ester of pinnatoxin-G [Palmitoyl-PnTX-G]	13.1	
C=CC1=C[C@@H]2[C@@H]3O[C@]4(C[C@H]5CCC[C@@]6(CC[C@@]7(O[C@@H](CC[C@@]7(C)O)CC(=C)CCCC7=NC[C@H](C)[C@@H](C)C[C@@]72CC1)O6)O5)C[C@@H](C)[C@@H](O)[C@H]3O4 [PnTX-G, pinnatoxin-G]		0.0186
